Test system: HepG2 cells
Test: Ketogenic activity in HepG2 cells (ketone levels in cell supernatants)
Type: cell-based
Conditions: each component 2.4 mM, glucose-free media, up to 135 minutes, FIG. 1
Experimental: In this Example, the ketogenic activities of various compositions were tested in HepG2 cells. More particularly, the ketogenic activity of butyric acid (2.4 mM) (“BA”) alone; beta-hydroxybutyrate (2.4 mM) (“BHB”) alone; caprylic acid (2.4 mM) (“CA”) alone; caprylic acid (2.4 mM) combined with butyric acid (2.4 mM); and a combination of caprylic acid (2.4 mM), butyric acid (2.4 mM), and beta-hydroxybutyrate (2.4 mM) were all tested in HepG2 cells. Each compound (or combination of compounds) was added to a solvent containing glucose-free media that included 10% fetal bovine serum (FBX), 1 mM sodium pyruvate, and 1 mM glutamine.
Each test composition was administered to HepG2 cells in a cell culture plate. Each composition was tested with three replicates. Ketone levels in the HepG2 cell supernatants were measured at the time of administration (time=0) and every 45 minutes thereafter, up to 135 minutes. The results are presented as the difference between the ketone concentration that was measured at each time point (i.e., measured every 45 minutes) and the ketone concentration that was measured at time=0 for each test composition, such that any positive measurement indicates an increase in ketone levels from the baseline time=0 measurement.

Row | SMILES | induction of ketogenesis (generation of ketones)
1 | CCCC(=O)O [butyric acid] | neither butyric acid alone, nor caprylic acid alone, was shown to induce ketogenesis
2 | CCCCCCCC(=O)O [caprylic acid, caprylic acid (octanoic acid)] | neither butyric acid alone, nor caprylic acid alone, was shown to induce ketogenesis

— patent publication US20250195460A1, “MEDIUM CHAIN TRIGLYCERIDE AND SHORT CHAIN FATTY ACID COMPOSITIONS & METHODS OF USE THEREOF” (priority 2023, published 2025)
